From paper PMC4552634, “A New Set of Chemical Starting Points with Plasmodium falciparum Transmission-Blocking Potential for Antimalarial Drug Discovery” (PLoS ONE, 2015)
Where two headings read alike, the source gives them in different places.

Key:
[1] = system: P. falciparum asexual stages; conditions: cited from earlier work
[2] = system: P. falciparum stage V gametocytes; assay: Gametocytocidal ATP bioluminescence assay (single point 5 μM and 1 μM, dose-response); assay type: cell-based, Plasmodium falciparum; conditions: for Ratio IC50 HepG2/IC50 P. falciparum: IC50 HepG2 divided by IC50 P. falciparum gametocytes
Method: Purified stage IV-V gametocytes were obtained as previously described [10]. Single point ATP bioluminescence assay and dose–response of positive hits was determined in accordance with the previously published protocol [10].

[3] = Cytotoxicity in HepG2 cells (intracellular ATP, ATPlite, 48 h); assay type: cell-based, human; conditions: human, HepG2 cells
Method: (§1) Cells were grown and maintained in EMEM (Sigma-Aldrich) supplemented with 2mM L-glutamine (Sigma-Aldrich) and 10% fetal calf serum (Perbio). […] Passages were routinely made upon reaching 80–90% confluence. For cytotoxicity experiments, cells were seeded onto 96-well clear bottom black plates coated with type I collagen (Biocoat, Becton Dickinson) at a cell density of 20,000 cells/well.
(§2) To determine cytotoxic effects, represented by the Tox50 value (the concentration of drug that reduces cell viability by 50%), cells were exposed to serial dilutions of compounds for 48 h at 37°C. The assay medium was as previously described, but supplemented with 5% fetal calf serum instead of 10%. […] In the presence of ATP, luminescence is emitted as the reaction described earlier for the BacTiter-Glo kit. Percentages of inhibition were calculated relative to vehicle control wells.

HepG2 cells = assay: as above; assay type: cell-based, human; conditions: IC50 HepG2 divided by IC50 P. falciparum gametocytes
Method: as §1, §2

[4] = asexual stages, TCAMS data, read-out: IC50 asexual
[5] = Plasmodium falciparum, P. falciparum gametocytes, average, read-out: IC50 Pf Gametocytes average, IC50 (µM) average
[6] = sexual stages (gametocytes), dose-response, read-out: IC50 sexual
[7] = IC50 per ratio column head, unit inferred, read-out: Cytotoxicity in HepG2
[8] = P. falciparum asexual stages, TCAMS data, read-out: IC50 (µM) Pf asexual stages
[9] = HepG2, 48 h exposure, intracellular ATP, read-out: IC50 (μM) Cytotoxicity HepG2
[10] = Plasmodium falciparum, sexual stages (gametocytes), dose-response, read-out: IC50 sexual

Row | Compound | IC50 [1, 4] [µM] | Ratio IC50 HepG2/IC50 P. falciparum [2] | IC50 [2, 5] [µM] | IC50 [2, 6] [µM] | IC50 at 48 h [3, 7] [µM] | Ratio IC50 HepG2/IC50 P. falciparum (HepG2 cells) | IC50 [1, 8] [µM] | IC50 at 48 h [3, 9] [µM] | IC50 [2, 10] [µM] | IC50 ([2]; Plasmodium falciparum, gametocytes (GC), value as repeated in the Clusters sheet, read-out: IC50 GC) [µM] | IC50 ([3]; IC50 per ratio column head, unit inferred) [µM] | IC50 ([1]; as previously determined for TCAMS, read-out: IC50 (μM) Pf Asexual stages) [µM]
1 | N=C(N=C(NCCCCCCNC(=NC(=N)NCc1ccc(Cl)c(Cl)c1)N1CCCCC1)N1CCCCC1)NCc1ccc(Cl)c(Cl)c1 [TCMDC-131816] | 0.567 | >68 | 0.37 | 0.365 | > 25 | >68 |  |  |  |  |  | 
2 | CCN(CC)C(=NC(=N)NCc1ccc(Cl)cc1)NCCCCCCNC(=NC(=N)NCc1ccc(Cl)cc1)N(CC)CC [TCMDC-131817] | 0.231 | >32 | 0.79 |  | > 25 | >32 |  |  |  |  |  | 
3 | CCCCN(CCCC)C(=NC(=N)NCc1ccc(Cl)c(Cl)c1)NCCCCCCNC(=NC(=N)NCc1ccc(Cl)c(Cl)c1)N(CCCC)CCCC [TCMDC-131821] | 0.399 | 20 | 0.62 | 0.615 | 12.4 | 20 |  |  |  |  |  | 
4 | COc1cc2c(c(Cl)c1OC)CCN(C(=O)C(F)(F)F)CC2c1ccccc1 (stereo not drawn) [TCMDC-132071] | 0.441 | >13 | 1.95 |  | > 25 | >13 | 0.44 |  |  |  |  | 
5 | Cc1cccc2nc(-c3ccc(-c4ccc(CNCc5ccc(CN)cc5)cc4)s3)[nH]c12 [TCMDC-132809] | 0.442 | 28 | 0.86 | 0.855 | 24 | 28 |  |  |  |  |  | 
6 | NCc1ccc(CNCc2cccc(-c3ccc(-c4nc5cc(C(F)(F)F)ccc5[nH]4)cc3)c2)cc1 [TCMDC-132811] | 0.261 | 28 | 0.86 | 0.855 | 24.3 | 28 |  |  |  |  |  | 
7 | FC(F)(F)c1ccc2[nH]c(-c3ccc(-c4cccc(CNCCN5CCNCC5)c4)cc3)nc2c1 [TCMDC-132864] | 1.03 | 16 | 1.08 |  | 17.5 | 16 | 1.03 | 18 |  |  |  | 
8 | CC(C)(C)c1ccc(CN2CCC(CNC(=O)c3cc(-c4cccc(Cl)c4)cs3)C2)cc1 (stereo not drawn) [TCMDC-134446] | 1.16 | 19 | 0.61 |  | 11.3 | 19 | 1.16 | 11 | 0.605 |  |  | 
9 | CS(=O)(=O)c1cccc(-c2cnc3[nH]cc(-c4cccc(CCN)c4)c3c2)c1 [TCMDC-136307] | 1.56 | >53 | 0.47 |  | > 25 | >53 | 1.56 |  |  |  |  | 
10 | COc1cc(CCNC(=N)/C=C/c2ccc(Cl)cc2)ccc1Cl [TCMDC-137457] | 0.241 | 50 | 0.28 |  | 14 | 50 |  |  |  |  |  | 
11 | CCCCN(CCCC)CCCCNc1c2ccccc2nc2ccccc12 [TCMDC-137461] | 0.148 | 35 | 0.55 |  | 19 | 35 |  |  |  |  |  | 
12 | COc1ccc2nc3cc(Cl)ccc3c(NCCCCCCNc3c4ccc(Cl)cc4nc4ccc(OC)cc34)c2c1 [TCMDC-137503] | 0.661 | >500 | 0.05 |  | > 25 | >500 |  |  |  |  |  | 
13 | CC(C)CCNC(=N)Nc1ccc(OCCCCCOc2ccc(NC(=N)NCCC(C)C)cc2)cc1 [TCMDC-137614] | 1.08 | >49 | 0.51 | 0.507 | > 25 | >49 |  |  |  |  |  | 
14 | CC(C)CCNC(=N)Nc1ccc(OCCCOc2ccc(NC(=N)NCCC(C)C)cc2)cc1 [TCMDC-137615] | 0.2 | >86 | 0.29 |  | > 25 | >86 |  |  |  |  |  | 
15 | CC1CCCCN1CCCNc1nc(NCc2ccccc2)c2ccccc2n1 (stereo not drawn) [TCMDC-137771] | 0.953 | 143 | 0.14 |  | 20.1 | 143 | 0.95 | 20 |  |  |  | 
16 | c1cc(C2=N[C@H]3CCCC[C@@H]3N2)ccc1OCCCOc1ccc(C2=N[C@@H]3CCCC[C@H]3N2)cc1 [TCMDC-137803] | 0.731 | >54 | 0.47 | 0.467 | > 25 | >54 |  |  |  |  |  | 
17 | CC(=NNC(=S)NCCc1ccccn1)c1ccccn1 [TCMDC-137895] | 0.319 | >17 | 1.49 |  | > 25 | >17 | 0.32 |  | 1.5 | 1.5 |  | 
18 | c1ccc2c(c1)cc(CNCCCN1CCN(CCCNCc3cc4ccccc4c4ccccc34)CC1)c1ccccc12 [TCMDC-137914] | 0.204 | 12 | 1.11 |  |  | 12 |  |  |  |  | 13.7 | 
19 | CCN(CC)Cc1cc(Nc2c3ccc(Cl)cc3nc3cccc(OC)c23)ccc1O [TCMDC-139222] | 0.033 | >25 | 1 |  | > 25 | >25 | 0.0334 |  | 0.995 |  |  | 0.03
20 | N=C(N)Nc1nc(-c2ccc(NC(=O)Nc3cccc(-c4csc(NC(=N)N)n4)c3)cc2)cs1 [TCMDC-139559] | 1.01 | >17 | 1.43 |  | > 25 | >17 |  |  |  |  |  | 
21 | CC(C)CNCc1cccc(-c2cccc(CNCCCN3CCN(C)CC3)c2)c1 [TCMDC-140483] | 1.18 | >16 | 1.56 | 1.56 | > 25 | >16 |  |  |  |  |  | 
22 | CC(C)CNCc1cccc(-c2cccc(CN(CCN(C)C)C(=O)Nc3ccccc3)c2)c1 [TCMDC-140592] | 0.795 | 24 | 0.66 |  | 15.8 | 24 |  |  |  |  |  | 
23 | CN1CCN(CCCN(Cc2ccc(-c3cccc(CNC4CCCC4)c3)cc2)C(=O)Nc2ccccc2)CC1 [TCMDC-140605] | 1.12 | 81 | 0.18 | 0.177 | 14.3 | 81 |  |  |  |  |  | 
24 | CN1CCN(CCCNCc2cccc(-c3ccc(CNCCc4ccccc4)cc3)c2)CC1 [TCMDC-140643] | 0.781 | 44 | 0.41 | 0.413 | 18.2 | 44 |  |  |  |  |  | 
25 | Cc1c(Cn2ncc(N3CCC(N)CC3)c(Cl)c2=O)cccc1NC(=O)Nc1ccc(-c2ccccc2)cc1 [TCMDC-141931] | 0.697 | 12 | 1.18 | 1.18 | 14.5 | 12 |  |  |  |  |  | 
